According to ChEMBL document CHEMBL5226369, “Tetracyclic Steroids Bearing a Bicyclo[4.4.1] Ring System as Potent Antiosteoporosis Agents from the Deep-Sea-Derived Fungus Rhizopus sp. W23” (J Nat Prod, 2023):

Key:
Format in all cases: functional, cell-based
[1] = system: A549; test: Antiproliferative activity against human A549 cells by MTT assay
[2] = system: A-375; test: Antiproliferative activity against human A-375 cells by MTT assay
[3] = system: K562; test: Antiproliferative activity against human K562 cells by MTT assay
[4] = system: PC-3; test: Antiproliferative activity against human PC-3 cells by MTT assay
[5] = Antiproliferative activity against human SKGT4 cells by MTT assay
[6] = system: MDA-MB-231; test: Antiproliferative activity against human MDA-MB-231 cells by MTT assay
[7] = system: U2OS; test: Antiproliferative activity against human U2OS cells by MTT assay
[8] = system: HL-60; test: Antiproliferative activity against human HL-60 cells by MTT assay
[9] = system: NCI-H460; test: Antiproliferative activity against human NCI-H460 cells by MTT assay
[10] = system: BGC-823; test: Antiproliferative activity against human BGC-823 cells by MTT assay
[11] = system: NCI-H1299; test: Antiproliferative activity against human NCI-H1299 cells by MTT assay
[12] = system: PANC-1; test: Antiproliferative activity against human PANC-1 cells by MTT assay
[13] = system: HCT-116; test: Antiproliferative activity against human HCT-116 cells by MTT assay
[14] = system: MCF7; test: Antiproliferative activity against human MCF7 cells by MTT assay
[15] = system: A-431; test: Antiproliferative activity against human A-431 cells by MTT assay
[16] = system: KYSE-450; test: Antiproliferative activity against human KYSE-450 cells by MTT assay
[17] = Antiproliferative activity against human QGY-7701 cells by MTT assay; conditions: QGY7701
[18] = system: HepG2; test: Antiproliferative activity against human HepG2 cells by MTT assay

Measured: IC50

CC(=O)OC(C)C(O)/C=C(\C)[C@H]1CC[C@H]2C3=CC(=O)[C@H]4CC(=CC[C@H](O)C4)[C@H]3CC[C@]12C (stereo not given in full)
> 20 µM: all assays above

C/C(=C\C(=O)C(C)O)[C@H]1CC[C@H]2C3=CC(=O)[C@H]4CC(=CC[C@H](O)C4)[C@H]3CC[C@]12C (stereo not given in full)
> 20 µM: all assays above

C/C=C/[C@H](O)[C@](C)(O)[C@H]1CC[C@H]2C3=CC(=O)[C@H]4CC(=CC[C@H](O)C4)[C@H]3CC[C@]12C
> 20 µM: all assays above

C/C(=C\[C@@H](O)[C@@H](C)O)[C@H]1CC[C@H]2C3=CC(=O)[C@H]4CC(=CC[C@H](O)C4)[C@H]3CC[C@]12C
> 20 µM: all assays above

CC(=O)/C=C/[C@@](C)(O)[C@H]1CC[C@H]2C3=CC(=O)[C@H]4CC(=CC[C@H](O)C4)[C@H]3CC[C@@]21C
> 20 µM: all assays above

CC(=O)/C=C/[C@](C)(O)[C@H]1CC[C@H]2C3=CC(=O)[C@H]4CC(=CC[C@H](O)C4)[C@H]3CC[C@@]21C
> 20 µM: all assays above

CO[C@@H](/C=C(\C)[C@H]1CC[C@H]2C3=CC(=O)[C@H]4CC(=CC[C@H](O)C4)[C@H]3CC[C@]12C)[C@@H](C)O
> 20 µM: all assays above

C/C(=C\[C@H](O)[C@H](C)O)[C@H]1CC[C@H]2C3=CC(=O)[C@H]4CC(=CC[C@H](O)C4)[C@H]3CC[C@]12C [NEOCYCLOCITRINOL B]
> 20 µM: all assays above

C/C=C/[C@@H](O)[C@](C)(O)[C@H]1CC[C@H]2C3=CC(=O)[C@H]4CC(=CC[C@H](O)C4)[C@H]3CC[C@]12C
> 20 µM: all assays above

COC(/C=C(\C)[C@H]1CC[C@H]2C3=CC(=O)[C@H]4CC(=CC[C@H](O)C4)[C@H]3CC[C@]12C)C(C)O (stereo not given in full)
> 20 µM: all assays above

CO[C@H](/C=C(\C)[C@H]1CC[C@H]2C3=CC(=O)[C@H]4CC(=CC[C@H](O)C4)[C@H]3CC[C@]12C)[C@H](C)O
> 20 µM: all assays above

C/C(=C\C(=O)O)[C@H]1CC[C@H]2C3=CC(=O)[C@H]4CC(=CC[C@H](O)C4)[C@H]3CC[C@]12C
> 20 µM: all assays above

C/C(=C\[C@H](O)[C@@H](C)O)[C@H]1CC[C@H]2C3=CC(=O)[C@H]4CC(=CC[C@H](O)C4)[C@H]3CC[C@]12C
> 20 µM: all assays above

C[C@]12CC[C@@H]3C4=CC[C@H](O)C[C@H](C4)C(=O)C=C3[C@@H]1CC[C@@H]2[C@](C)(O)CC(=O)O
> 20 µM: all assays above

C/C=C/[C@H](OC(C)=O)[C@](C)(O)[C@H]1CC[C@H]2C3=CC(=O)[C@H]4CC(=CC[C@H](O)C4)[C@H]3CC[C@]12C
> 20 µM: all assays above
